Assay results taken from patent US10172868B2, “Substituted quinazolines for inhibiting kinase activity” (NeuPharma, Inc., priority 2013, dated 2019).

Key:
EGFR (ErbB1) L858R = EGFR (ErbB1) L858R (Homo sapiens (Human), UniProt P00533, L858R); assay: Z'-LYTE kinase inhibition assay, EGFR L858R; format: biochemical; conditions: read-out: % inhibition against EGFR L858R (Compound at 1 μM)
Description: Inhibitory activities of compounds against BTK, EGFR and EGFR mutants (EGFR L858R, EGFR T790M, EGFR L858R/T790M), FGFR1, FGFR2, JAK2, JAK3 and KDR were measured by Invitrogen using Z'-LYTE® Method as briefly described in the following. Test Compounds are screened in 1% DMSO (final) in the well. For 10 point titrations, 3-fold serial dilutions are conducted from the starting concentration. All ATP Solutions are diluted to a 4× working concentration in Kinase Buffer (50 mM HEPES pH 7.5, 0.01% BRIJ-35, 10 mM MgCl2, 1 mM EGTA). Peptide/Kinase Mixtures are diluted to a 2× working concentration in the appropriate Kinase Buffers as described below. (ii) Peptide/Kinase Mixtures for Measurement of EGFR (ErbB1) L858R: The 2×EGFR (ErbB1) L858R/[…] mixture is prepared in 50 mM HEPES pH 7.5, 0.01% BRIJ-35, 10 mM MgCl2, 4 mM MnCl2, 1 mM EGTA, 2 mM DTT. The final 10 μL Kinase Reaction consists of 0.2-1.68 ng EGFR (ErbB1) L858R and 2 μM […] in 50 mM HEPES pH 7.5. 0.01% BRIJ-35, 10 mM MgCl2. 2 mM MnCl2, 1 mM EGTA, 1 mM DTT. After the 1 hour Kinase Reaction incubation, 5 μL of a 1:64 dilution of Development Reagent B is added. Reaction starts by 30-second shaking of mixture consisting of 2.5 μL 4× test compound, […] 2× kinase reaction mixture and 2.5 μL 4×ATP Solution on Bar-coded Corning, low volume NBS, black 384-well plate (Corning Cat. #3676). Then the mixture is incubated for 60-minute at room temperature for the kinase reaction, followed by addition of 5 μL of a 1:1024 dilution of development reagent A and 30-second plate shake. The mixture is then incubated for another 60-minute at room temperature for development reaction. Finally fluorescence is read by plate reader.

BTK = BTK (Homo sapiens (Human), UniProt Q06187); assay: Z'-LYTE kinase inhibition assay, BTK; format: biochemical; conditions: for inhibition at 0.041 µM: compound at 0.041 μM, read-out: % inhibition against BTK; for IC50: read-out: IC50 against BTK
Outline: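 Z'-LYTE FRET assay with Tyr 01 peptide in 50 mM HEPES pH 7.5, 10 mM MgCl2, 1 mM EGTA, 0.01% BRIJ-35. Compounds in 1% DMSO were tested as 10-point, 3-fold titrations.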

JAK2 = JAK2 (Homo sapiens (Human), UniProt O60674); assay: Z'-LYTE kinase inhibition assay, JAK2; format: biochemical; conditions: compound at 0.041 μM; read-out: % inhibition against JAK2
Description: (§1) Inhibitory activities of compounds against BTK, EGFR and EGFR mutants (EGFR L858R, EGFR T790M, EGFR L858R/T790M), FGFR1, FGFR2, JAK2, JAK3 and KDR were measured by Invitrogen using Z'-LYTE® Method as briefly described in the following.
(§2) Test Compounds are screened in 1% DMSO (final) in the well. For 10 point titrations, 3-fold serial dilutions are conducted from the starting concentration. All ATP Solutions are diluted to a 4× working concentration in Kinase Buffer (50 mM HEPES pH 7.5, 0.01% BRIJ-35, 10 mM MgCl2, 1 mM EGTA). Peptide/Kinase Mixtures are diluted to a 2× working concentration in the appropriate Kinase Buffers as described below.
(v) Peptide/Kinase Mixtures for Measurement of JAK2:
The 2×JAK2/Tyr 06 mixture is prepared in 50 mM HEPES pH 7.5, 0.01% BRIJ-35, 10 mM MgCl2, 1 mM EGTA. The final 10 μL Kinase Reaction consists of 0.06-0.81 ng JAK2 and 2 μM Tyr 06 in 50 mM HEPES pH 7.5, 0.01% BRIJ-35, 10 mM MgCl2, 1 mM EGTA. After the 1 hour Kinase Reaction incubation, 5 μL of a 1:64 dilution of Development Reagent A is added.
(§3) Reaction starts by 30-second shaking of mixture consisting of 2.5 μL 4× test compound, […] 2× kinase reaction mixture and 2.5 μL 4×ATP Solution on Bar-coded Corning, low volume NBS, black 384-well plate (Corning Cat. #3676). Then the mixture is incubated for 60-minute at room temperature for the kinase reaction, followed by addition of 5 μL of a 1:1024 dilution of development reagent A and 30-second plate shake. The mixture is then incubated for another 60-minute at room temperature for development reaction. Finally fluorescence is read by plate reader.

FGFR1 = FGFR1 (Homo sapiens (Human), UniProt P11362); assay: Z'-LYTE kinase inhibition assay, FGFR1; format: biochemical; conditions: for inhibition at 0.041 µM: compound at 0.041 μM, read-out: % inhibition against FGFR1; for IC50: read-out: IC50 against FGFR1
Description: as §1, §2
(v) Peptide/Kinase Mixtures for Measurement of FGFR1:
The 2×FGFR1/Tyr 04 mixture is prepared in 50 mM HEPES pH 7.5, 0.01% BRIJ-35, 10 mM MgCl2, 4 mM MnCl2, 1 mM EGTA, 2 mM DTT. The final 10 μL Kinase Reaction consists of 0.41-3.5 ng FGFR1 and 2 μM Tyr 04 in 50 mM HEPES pH 7.5, 0.01% BRIJ-35, 10 mM MgCl2, 2 mM MnCl2, 1 mM EGTA, 1 mM DTT. After the 1 hour Kinase Reaction incubation, 5 μL of a 1:64 dilution of Development Reagent B is added.
as §3
To determine IC50 of a compound against EGFR, EGFR mutant and other kinases, a series of concentrations of the compound were tested for the inhibition. […] The scale utilized in Table 4 is as follows: +++ less than 100 nM, ++ 100-500 nM and + greater than 500 nM.

A431 cells = assay: cells; conditions: Homo sapiens, A-431, 72 h, read-out: IC50 in A431 cells
H3255 cells = assay: Inhibition of cancer cell growth, MTT assay, H3255; conditions: Homo sapiens, NCI-H3255, 72 h, read-out: IC50 in H3255 cells
Description: (§4) Inhibition of cell growth by compounds was measured using MTT assay (Mosmann, T., Journal of Immunological Methods, 1983, 65, 55-63). Tumor cell lines were purchased from ATCC (American Type Culture Collection, Manassas, Va.). All cell lines were maintained in RPMI 1640 (Hyclone) supplemented with 10% fetal bovine serum (FBS, Hyclone), glutamine (2 mM, Hyclone), and antibiotics (penicillin 100 U/mL and streptomycin 50 μg/mL) at 37° C. in a humidified atmosphere of 5% CO2 in air. Taxol (as a positive control. Sigma) and compounds were dissolved in DMSO (Sigma), and the final concentration of DMSO in the medium was 1%. Tumor cells were plated in 96-well plates at densities of about 4000 cells/well of a 96-well plate and allowed to adhere/grow for 24 h. They were then treated with various concentrations of drug for 72 h, 3-(4,5-Dimethylthiazol-2-yl)-2,5-diphenyltetrazolium bromide (MTT, Sigma) was used to determine the number of viable cells at the time of compound addition and the number of cells remaining after 72 h compound exposure. The number of cells remaining after 72 h was compared to the number of viable cells at the time of compound addition by measuring the absorbance at 570 nm, allowing for the calculation of growth inhibition.
(§5) All concentrations of compounds were tested in triplicate and controls were averaged over 4 wells. IC50 was calculated by plotting the concentration of compound vs the percentage of inhibition in treated wells using GraphPad Prism 5.

H1299 cells = assay: Inhibition of cancer cell growth, MTT assay, H1299; conditions: Homo sapiens, NCI-H1299, 72 h, read-out: IC50 in H1299 cells
Description: as §4, §5

Sequence of JAK2 (O60674 whole entry): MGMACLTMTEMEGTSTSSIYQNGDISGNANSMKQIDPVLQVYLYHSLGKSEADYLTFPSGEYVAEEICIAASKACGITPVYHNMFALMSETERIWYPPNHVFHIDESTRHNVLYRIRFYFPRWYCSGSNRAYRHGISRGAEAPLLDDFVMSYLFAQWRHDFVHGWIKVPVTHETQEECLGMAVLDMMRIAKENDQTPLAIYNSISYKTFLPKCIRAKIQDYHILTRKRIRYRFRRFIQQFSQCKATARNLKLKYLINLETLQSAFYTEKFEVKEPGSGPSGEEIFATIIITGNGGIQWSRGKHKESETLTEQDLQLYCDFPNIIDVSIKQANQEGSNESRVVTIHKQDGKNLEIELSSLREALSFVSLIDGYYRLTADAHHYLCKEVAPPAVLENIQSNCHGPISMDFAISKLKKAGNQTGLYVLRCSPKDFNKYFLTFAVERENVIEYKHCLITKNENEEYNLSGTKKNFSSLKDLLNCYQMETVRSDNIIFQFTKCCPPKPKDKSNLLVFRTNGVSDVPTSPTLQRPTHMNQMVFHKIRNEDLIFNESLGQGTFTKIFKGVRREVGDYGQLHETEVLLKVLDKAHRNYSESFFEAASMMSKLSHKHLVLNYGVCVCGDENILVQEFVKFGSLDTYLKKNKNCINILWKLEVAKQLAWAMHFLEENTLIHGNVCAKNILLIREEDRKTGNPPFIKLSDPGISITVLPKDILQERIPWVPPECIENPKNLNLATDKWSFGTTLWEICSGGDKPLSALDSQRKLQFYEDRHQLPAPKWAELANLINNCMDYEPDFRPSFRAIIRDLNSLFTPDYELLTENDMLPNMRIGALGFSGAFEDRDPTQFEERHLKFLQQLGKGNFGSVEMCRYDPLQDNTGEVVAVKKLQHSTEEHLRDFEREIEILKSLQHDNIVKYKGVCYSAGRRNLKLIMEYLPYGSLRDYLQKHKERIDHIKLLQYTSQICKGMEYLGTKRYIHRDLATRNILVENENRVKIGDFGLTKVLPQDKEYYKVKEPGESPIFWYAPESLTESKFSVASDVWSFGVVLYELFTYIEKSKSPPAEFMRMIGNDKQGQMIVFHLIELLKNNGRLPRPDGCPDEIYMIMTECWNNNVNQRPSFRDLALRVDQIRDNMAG
Sequence of FGFR1 (P11362 22-822): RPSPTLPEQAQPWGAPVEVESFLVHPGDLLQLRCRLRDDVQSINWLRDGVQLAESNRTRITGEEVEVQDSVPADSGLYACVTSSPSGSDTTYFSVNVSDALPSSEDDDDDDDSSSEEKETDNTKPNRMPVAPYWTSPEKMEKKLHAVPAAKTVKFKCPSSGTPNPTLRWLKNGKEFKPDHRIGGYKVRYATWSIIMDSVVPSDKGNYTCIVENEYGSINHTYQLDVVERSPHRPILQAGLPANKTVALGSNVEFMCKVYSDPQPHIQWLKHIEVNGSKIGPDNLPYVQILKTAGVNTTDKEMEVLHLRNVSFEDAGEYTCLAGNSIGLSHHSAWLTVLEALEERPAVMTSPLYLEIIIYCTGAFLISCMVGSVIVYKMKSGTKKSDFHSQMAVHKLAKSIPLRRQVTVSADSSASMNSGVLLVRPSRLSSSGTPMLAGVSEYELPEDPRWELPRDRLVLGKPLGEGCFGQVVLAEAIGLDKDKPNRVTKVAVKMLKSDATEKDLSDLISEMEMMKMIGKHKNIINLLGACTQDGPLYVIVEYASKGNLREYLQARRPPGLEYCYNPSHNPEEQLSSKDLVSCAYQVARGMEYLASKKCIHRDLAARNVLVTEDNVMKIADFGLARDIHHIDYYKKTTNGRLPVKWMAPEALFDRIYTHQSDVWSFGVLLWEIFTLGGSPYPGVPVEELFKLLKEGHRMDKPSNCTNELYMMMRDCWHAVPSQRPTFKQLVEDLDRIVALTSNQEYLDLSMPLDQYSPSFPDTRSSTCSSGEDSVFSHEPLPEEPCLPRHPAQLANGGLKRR
Sequence of EGFR (ErbB1) L858R (P00533 25-1210 L858R): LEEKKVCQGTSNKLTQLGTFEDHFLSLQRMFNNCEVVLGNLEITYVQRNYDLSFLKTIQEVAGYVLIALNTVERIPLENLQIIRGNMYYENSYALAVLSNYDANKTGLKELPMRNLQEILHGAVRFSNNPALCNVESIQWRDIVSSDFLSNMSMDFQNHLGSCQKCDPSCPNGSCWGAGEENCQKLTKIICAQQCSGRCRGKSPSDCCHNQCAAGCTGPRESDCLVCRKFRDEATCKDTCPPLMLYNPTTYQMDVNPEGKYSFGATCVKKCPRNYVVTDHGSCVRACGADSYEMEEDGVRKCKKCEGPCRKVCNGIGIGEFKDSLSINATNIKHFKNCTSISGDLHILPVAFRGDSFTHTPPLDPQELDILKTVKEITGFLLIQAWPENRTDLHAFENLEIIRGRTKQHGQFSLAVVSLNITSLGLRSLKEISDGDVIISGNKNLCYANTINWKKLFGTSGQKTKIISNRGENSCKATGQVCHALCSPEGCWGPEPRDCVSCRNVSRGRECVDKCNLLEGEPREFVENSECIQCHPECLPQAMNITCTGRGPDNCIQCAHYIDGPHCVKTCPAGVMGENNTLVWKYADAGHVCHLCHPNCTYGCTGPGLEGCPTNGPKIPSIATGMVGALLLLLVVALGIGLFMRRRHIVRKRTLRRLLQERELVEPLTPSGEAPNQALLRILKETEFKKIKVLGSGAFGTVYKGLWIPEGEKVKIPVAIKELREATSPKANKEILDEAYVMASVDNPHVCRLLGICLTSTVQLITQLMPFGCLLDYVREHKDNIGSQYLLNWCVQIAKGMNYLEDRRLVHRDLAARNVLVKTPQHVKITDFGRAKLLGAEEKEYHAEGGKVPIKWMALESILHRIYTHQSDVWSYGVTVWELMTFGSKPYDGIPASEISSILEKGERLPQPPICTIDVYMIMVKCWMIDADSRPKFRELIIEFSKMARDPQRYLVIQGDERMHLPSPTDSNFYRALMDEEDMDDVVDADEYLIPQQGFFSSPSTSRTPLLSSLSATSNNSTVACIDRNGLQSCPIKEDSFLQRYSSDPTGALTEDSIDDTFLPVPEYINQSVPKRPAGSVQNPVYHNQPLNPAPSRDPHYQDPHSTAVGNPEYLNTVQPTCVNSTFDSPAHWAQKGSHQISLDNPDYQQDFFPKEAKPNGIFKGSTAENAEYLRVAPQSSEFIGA
Sequence of BTK (Q06187 whole entry): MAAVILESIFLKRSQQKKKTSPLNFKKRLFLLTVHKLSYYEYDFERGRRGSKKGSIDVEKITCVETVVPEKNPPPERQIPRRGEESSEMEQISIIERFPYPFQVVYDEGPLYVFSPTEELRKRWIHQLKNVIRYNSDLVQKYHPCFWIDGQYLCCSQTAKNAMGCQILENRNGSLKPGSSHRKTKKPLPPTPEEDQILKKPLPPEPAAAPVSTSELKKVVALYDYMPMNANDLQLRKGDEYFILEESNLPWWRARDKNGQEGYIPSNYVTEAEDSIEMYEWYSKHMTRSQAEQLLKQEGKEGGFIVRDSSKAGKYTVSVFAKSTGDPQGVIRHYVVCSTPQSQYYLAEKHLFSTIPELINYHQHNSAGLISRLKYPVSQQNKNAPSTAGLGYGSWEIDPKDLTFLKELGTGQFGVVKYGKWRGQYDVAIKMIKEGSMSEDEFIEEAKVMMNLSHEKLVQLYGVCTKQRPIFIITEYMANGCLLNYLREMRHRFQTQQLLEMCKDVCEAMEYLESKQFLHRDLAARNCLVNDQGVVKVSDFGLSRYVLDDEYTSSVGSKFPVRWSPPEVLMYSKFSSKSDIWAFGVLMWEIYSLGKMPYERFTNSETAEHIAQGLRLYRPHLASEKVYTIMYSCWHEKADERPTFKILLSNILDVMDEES

Row | SMILES | inhibition at 1 µM (EGFR (ErbB1) L858R) [%] | inhibition at 0.041 µM (BTK) [%] | inhibition at 0.041 µM (JAK2) [%] | inhibition at 0.041 µM (FGFR1) [%] | IC50 (A431 cells) [µM] | IC50 (H3255 cells) [µM] | IC50 (H1299 cells) [µM] | IC50 (BTK) [µM] | IC50 (FGFR1) [µM]
1 | C=CC(=O)Nc1cccc(-c2cccc3cnc(Nc4ccc(N5CCOCC5)cc4)nc23)c1 [Example C001, N-(3-(2-((4-morpholinophenyl)amino)quinazolin-8-yl)phenyl)acrylamide] | > 50 | > 50 | > 50 | > 50 | > 0.5 | > 0.5 | > 0.5 |  | 
2 | C=CC(=O)Nc1cccc(-c2cccc3cnc(Nc4ccc(N5CCOCC5)cc4OC)nc23)c1 [Example C002, N-(3-(2-((2-methoxy-4-morpholinophenyl)amino)quinazolin-8-yl)phenyl)acrylamide] | < 50 |  |  |  | > 0.5 | > 0.5 |  |  | 
3 | C=CC(=O)Nc1cccc(-c2cccc3cnc(Nc4ccc(N5CCN(C)CC5)cc4OC)nc23)c1 [Example C003, N-(3-(2-((2-methoxy-4-(4-methylpiperazin-1-yl)phenyl)amino)quinazolin-8-yl)phenyl)acrylamide] | > 50 |  |  |  | > 0.5 | > 0.5 | > 0.5 |  | 
4 | c1ccc(-c2cccc3cnc(Nc4ccc(N5CCOCC5)cc4)nc23)cc1 [Example C004, N-(4-morpholinophenyl)-8-phenylquinazolin-2-amine] | < 50 | < 50 | > 50 |  |  |  |  |  | 
5 | C=CC(=O)Nc1cccc(-c2nccc3c(N)nc(Nc4ccc(N5CCOCC5)cc4)nc23)c1 [Example C005, N-(3-(4-amino-2-((4-morpholinophenyl)amino)pyrido[3,4-d]pyrimidin-8-yl)phenyl)acrylamide] | > 50 | > 50 | < 50 |  |  |  |  |  | 
6 | Fc1ccc(Cl)cc1-c1cccc2cnc(Nc3ccc(N4CCOCC4)cc3)nc12 [Example C007, 8-(5-chloro-2-fluorophenyl)-N-(4-morpholinophenyl)quinazolin-2-amine] | < 50 |  |  |  |  |  |  |  | 
7 | Clc1cccc(-c2cccc3cnc(Nc4ccc(N5CCOCC5)cc4)nc23)c1 [Example C008, 8-(3-chlorophenyl)-N-(4-morpholinophenyl)quinazolin-2-amine] | < 50 | < 50 | > 50 | < 50 |  |  |  |  | 
8 | Fc1cccc(-c2cccc3cnc(Nc4ccc(N5CCOCC5)cc4)nc23)c1 [Example C009, 8-(3-fluorophenyl)-N-(4-morpholinophenyl)quinazolin-2-amine] | < 50 | < 50 | > 50 |  |  |  |  |  | 
9 | Fc1ccccc1-c1cccc2cnc(Nc3ccc(N4CCOCC4)cc3)nc12 [Example C010, 8-(2-fluorophenyl)-N-(4-morpholinophenyl)quinazolin-2-amine] | < 50 |  |  |  |  |  |  |  | 
10 | Clc1ccccc1-c1cccc2cnc(Nc3ccc(N4CCOCC4)cc3)nc12 [Example C011, 8-(2-chlorophenyl)-N-(4-morpholinophenyl)quinazolin-2-amine] | < 50 |  |  |  | > 0.5 |  |  |  | 
11 | C=CC(=O)Nc1cccc(-c2nccc3cnc(Nc4ccc(N5CCOCC5)cc4)nc23)c1 [Example C012, N-(3-(2-((4-morpholinophenyl)amino)pyrido[3,4-d]pyrimidin-8-yl)phenyl)acrylamide] | < 50 | > 50 | < 50 |  | > 0.5 |  |  |  | 
12 | C=CC(=O)Nc1cccc(-c2cccc3cnc(Nc4ccc(N5CCN(C)CC5)cc4)nc23)c1 [Example C021, N-(3-(2-((4-(4-methylpiperazin-1-yl)phenyl)amino)quinazolin-8-yl)phenyl)acrylamide] |  | > 50 | > 50 | > 50 | 0.1 to 0.5 | 0.1 to 0.5 | 0.1 to 0.5 | < 0.1 | < 0.1
13 | C=CC(=O)Nc1cccc(-c2cccc3cnc(Nc4ccc(N5CCN(C)CC5)nc4)nc23)c1 [Example C041, N-(3-(2-((6-(4-methylpiperazin-1-yl)pyridin-3-yl)amino)quinazolin-8-yl)phenyl)acrylamide] |  |  |  |  | > 0.5 | > 0.5 | > 0.5 | < 0.1 | < 0.1
14 | C=CC(=O)Nc1cccc(-c2cccc3cnc(Nc4ccc(N5CCN(C)CC5)cc4F)nc23)c1 [Example C044, N-(3-(2-((2-fluoro-4-(4-methylpiperazin-1-yl)phenyl)amino)quinazolin-8-yl)phenyl)acrylamide] |  |  |  | < 50 | > 0.5 | > 0.5 | > 0.5 | < 0.1 | 
15 | C=CC(=O)Nc1cccc(-c2cccc3cnc(Nc4ccc(N5CCN(CCF)CC5)cc4)nc23)c1 [Example C053, N-(3-(2-((4-(4-(2-fluoroethyl)piperazin-1-yl)phenyl)amino)quinazolin-8-yl)phenyl)acrylamide] |  | > 50 | > 50 | > 50 | 0.1 to 0.5 |  |  |  | 
16 | C=CC(=O)Nc1cccc(-c2cccc3cnc(Nc4ccc(N5CCN(CCO)CC5)cc4)nc23)c1 [Example C059, N-(3-(2-((4-(4-(2-hydroxyethyl)piperazin-1-yl)phenyl)amino)quinazolin-8-yl)phenyl)acrylamide] |  |  |  | > 50 | 0.1 to 0.5 | 0.1 to 0.5 | > 0.5 | < 0.1 | < 0.1
